Laboratory results: patent US20250353891A1 (MEDIMMUNE LIMITED, priority 2022, published 2025)
Starred links: 1 amine or outer side, 2 acyl side, 3 side chain; linkers in the order of their positions; H or OH if unused. Non-standard residues stand in square brackets, D forms with d. Residues, ends and D or L forms follow the SMILES beside them. Groups on a side chain read outwards from the residue. *: point of attachment. C20 diacid = O=C(O)CCCCCCCCCCCCCCCCCCC(=O)*; C18 diacid = O=C(O)CCCCCCCCCCCCCCCCC(=O)*; γGlu = O=C(O)[C@H](CCC(=O)[*:2])N[*:1]; αMeF = C[C@](N)(Cc1ccccc1)C(=O)O; AEEA = NCCOCCOCC(=O)O; Aib = CC(C)(N)C(=O)O

Tests used:
[1] = target: human GLP-1 receptor (hGLP-1R) (Homo sapiens, UniProt P43220); test: cAMP production (HTRF) in CHO cells expressing hGLP-1R; assay type: cell-based; design: expressed in transfected cells; settings: for % Relative Potency Ratio: % GLP-1R activity relative to GLP-1 / % GlucR activity relative to glucagon; for EC50: cAMP, CHO cells, 0.1% BSA, geometric mean, read-out: hGLP-1R EC50
human GLP-1 receptor (hGLP-1R), sequence (P43220 24-463): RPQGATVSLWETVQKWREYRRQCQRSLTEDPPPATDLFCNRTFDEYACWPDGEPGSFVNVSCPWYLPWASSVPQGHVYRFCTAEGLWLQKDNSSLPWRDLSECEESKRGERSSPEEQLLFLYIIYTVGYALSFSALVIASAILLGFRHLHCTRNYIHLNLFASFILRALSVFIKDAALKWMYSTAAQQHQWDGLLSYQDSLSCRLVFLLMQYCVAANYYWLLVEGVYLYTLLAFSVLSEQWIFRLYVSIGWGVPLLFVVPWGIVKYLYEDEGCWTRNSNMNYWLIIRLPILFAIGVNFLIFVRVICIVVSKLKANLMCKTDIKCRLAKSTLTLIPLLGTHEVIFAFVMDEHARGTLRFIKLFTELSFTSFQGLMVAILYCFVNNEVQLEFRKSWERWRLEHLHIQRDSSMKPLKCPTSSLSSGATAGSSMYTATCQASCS
How it was run: (§1)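 Potency values represent EC50 from 4-parameter logistic curves of HTRF % Delta F signal. Receptor-expressing CHO cells (hGCGR 2×10^5 cells/mL, hGLP-1R 1×10^5 cells/mL) were exposed for 30 min at room temperature before two-step cAMP detection.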

[2] = target: human glucagon receptor (hGCGR) (Homo sapiens, UniProt P47871); test: cAMP production (HTRF) in CHO cells expressing hGCGR; assay type: cell-based; design: expressed in transfected cells; settings: cAMP, CHO cells, 0.1% BSA, geometric mean; read-out: hGluc-R EC50
human glucagon receptor (hGCGR), sequence (P47871 26-477): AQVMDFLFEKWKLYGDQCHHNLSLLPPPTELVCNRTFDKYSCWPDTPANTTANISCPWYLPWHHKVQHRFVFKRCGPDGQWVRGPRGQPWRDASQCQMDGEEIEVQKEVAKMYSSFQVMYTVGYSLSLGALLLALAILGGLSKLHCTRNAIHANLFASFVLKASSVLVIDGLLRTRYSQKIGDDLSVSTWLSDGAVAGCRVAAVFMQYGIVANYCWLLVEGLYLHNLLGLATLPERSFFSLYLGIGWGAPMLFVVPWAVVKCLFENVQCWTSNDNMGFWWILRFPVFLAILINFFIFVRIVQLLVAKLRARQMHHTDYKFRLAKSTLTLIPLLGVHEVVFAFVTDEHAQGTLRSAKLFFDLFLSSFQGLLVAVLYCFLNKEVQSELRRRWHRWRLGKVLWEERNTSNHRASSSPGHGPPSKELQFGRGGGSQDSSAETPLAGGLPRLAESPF
How it was run: as §1

Compound: CC[C@H](C)[C@H](NC(=O)C(C)(C)NC(=O)[C@H](CCCCNC(=O)COCCOCCNC(=O)COCCOCCNC(=O)CC[C@H](NC(=O)CC[C@H](NC(=O)CCCCCCCCCCCCCCCCC(=O)O)C(=O)O)C(=O)O)NC(=O)[C@@H](NC(=O)[C@](C)(Cc1ccccc1)NC(=O)[C@H](CC(=O)O)NC(=O)[C@H](CCC(N)=O)NC(=O)[C@H](C)NC(=O)[C@H](C)NC(=O)[C@H](CCCNC(=N)N)NC(=O)[C@H](CO)NC(=O)[C@H](CC(=O)O)NC(=O)[C@H](CC(C)C)NC(=O)[C@](C)(Cc1ccccc1)NC(=O)[C@H](CCCCN)NC(=O)[C@H](CO)NC(=O)[C@@H](NC(=O)[C@H](CC(=O)O)NC(=O)[C@H](CO)NC(=O)[C@@H](NC(=O)[C@](C)(Cc1ccccc1)NC(=O)[C@H](CO)NC(=O)CNC(=O)[C@H](Cc1c[nH]cn1)NC(=O)C(C)(C)NC(=O)[C@@H](N)Cc1c[nH]cn1)[C@@H](C)O)C(C)C)C(C)C)C(=O)N[C@@H](C)C(=O)N[C@@H](CC(N)=O)C(=O)N[C@H](C(=O)NCC(=O)NCC(N)=O)[C@@H](C)O [Peptide 373] (H-H[Aib]HGS[αMeF]TSDVSK[αMeF]LDSRAAQD[αMeF]VK([AEEA-AEEA-γGlu-γGlu-C18 diacid])[Aib]IANTGG-NH2; N-terminus assumed)
- % Relative Potency Ratio [1]: 7.2
- EC50 [1]: 0.0667 nM
- EC50 [2]: 0.242 nM

Compound: CC[C@H](C)[C@H](NC(=O)[C@H](Cc1c[nH]c2ccccc12)NC(=O)[C@H](CCCCNC(=O)COCCOCCNC(=O)COCCOCCNC(=O)CC[C@H](NC(=O)CC[C@H](NC(=O)CCCCCCCCCCCCCCCCCCC(=O)O)C(=O)O)C(=O)O)NC(=O)[C@@H](NC(=O)[C@](C)(Cc1ccccc1)NC(=O)[C@H](CC(=O)O)NC(=O)[C@H](CCC(N)=O)NC(=O)[C@H](C)NC(=O)[C@H](C)NC(=O)[C@H](CCCNC(=N)N)NC(=O)[C@H](CO)NC(=O)[C@H](CC(=O)O)NC(=O)[C@H](CC(C)C)NC(=O)[C@](C)(Cc1ccccc1)NC(=O)[C@H](CCCCN)NC(=O)[C@H](CO)NC(=O)[C@@H](NC(=O)[C@H](CC(=O)O)NC(=O)[C@H](CO)NC(=O)[C@@H](NC(=O)[C@](C)(Cc1ccccc1)NC(=O)[C@H](CO)NC(=O)CNC(=O)[C@H](Cc1c[nH]cn1)NC(=O)C(C)(C)NC(=O)[C@@H](N)Cc1c[nH]cn1)[C@@H](C)O)C(C)C)C(C)C)C(=O)N[C@@H](C)C(=O)N[C@@H](CC(N)=O)C(=O)N[C@H](C(N)=O)[C@@H](C)O [Peptide 374] (H-H[Aib]HGS[αMeF]TSDVSK[αMeF]LDSRAAQD[αMeF]VK([AEEA-AEEA-γGlu-γGlu-C20 diacid])WIANT-NH2; N-terminus assumed)
- % Relative Potency Ratio [1]: 1.2
- EC50 [1]: 0.434 nM
- EC50 [2]: 0.26 nM

Compound: CC[C@H](C)[C@H](NC(=O)[C@H](Cc1c[nH]c2ccccc12)NC(=O)[C@H](CCCCNC(=O)COCCOCCNC(=O)COCCOCCNC(=O)CC[C@H](NC(=O)CC[C@H](NC(=O)CCCCCCCCCCCCCCCCCCC(=O)O)C(=O)O)C(=O)O)NC(=O)[C@@H](NC(=O)[C@H](Cc1ccccc1)NC(=O)[C@H](CC(=O)O)NC(=O)[C@H](CCC(N)=O)NC(=O)[C@H](C)NC(=O)[C@H](C)NC(=O)[C@H](CCCNC(=N)N)NC(=O)[C@H](CO)NC(=O)[C@H](CC(=O)O)NC(=O)[C@H](CC(C)C)NC(=O)[C@](C)(Cc1ccccc1)NC(=O)[C@H](CCCCN)NC(=O)[C@H](CO)NC(=O)[C@@H](NC(=O)[C@H](CC(=O)O)NC(=O)[C@H](CO)NC(=O)[C@@H](NC(=O)[C@](C)(Cc1ccccc1)NC(=O)[C@H](CO)NC(=O)CNC(=O)[C@H](Cc1c[nH]cn1)NC(=O)C(C)(C)NC(=O)[C@@H](N)Cc1c[nH]cn1)[C@@H](C)O)C(C)C)C(C)C)C(=O)N[C@@H](C)C(=O)N[C@@H](CC(N)=O)C(=O)N[C@H](C(N)=O)[C@@H](C)O [Peptide 377] (H-H[Aib]HGS[αMeF]TSDVSK[αMeF]LDSRAAQDFVK([AEEA-AEEA-γGlu-γGlu-C20 diacid])WIANT-NH2; N-terminus assumed)
- % Relative Potency Ratio [1]: 2.5
- EC50 [1]: 0.15 nM
- EC50 [2]: 0.19 nM

Compound: CC[C@H](C)[C@H](NC(=O)[C@H](CO)NC(=O)[C@H](CCCCNC(=O)COCCOCCNC(=O)COCCOCCNC(=O)CC[C@H](NC(=O)CC[C@H](NC(=O)CCCCCCCCCCCCCCCCC(=O)O)C(=O)O)C(=O)O)NC(=O)[C@@H](NC(=O)[C@](C)(Cc1ccccc1)NC(=O)[C@H](CC(=O)O)NC(=O)[C@H](CCC(N)=O)NC(=O)[C@H](C)NC(=O)[C@H](C)NC(=O)[C@H](CCCNC(=N)N)NC(=O)[C@H](CO)NC(=O)[C@H](CC(=O)O)NC(=O)[C@H](CC(C)C)NC(=O)[C@](C)(Cc1ccccc1)NC(=O)[C@H](CCCCN)NC(=O)[C@H](CO)NC(=O)[C@@H](NC(=O)[C@H](CC(=O)O)NC(=O)[C@H](CO)NC(=O)[C@@H](NC(=O)[C@](C)(Cc1ccccc1)NC(=O)[C@H](CO)NC(=O)CNC(=O)[C@H](Cc1c[nH]cn1)NC(=O)C(C)(C)NC(=O)[C@@H](N)Cc1c[nH]cn1)[C@@H](C)O)C(C)C)C(C)C)C(=O)N[C@@H](C)C(=O)N[C@@H](CC(N)=O)C(=O)N[C@H](C(N)=O)[C@@H](C)O [Peptide 378] (H-H[Aib]HGS[αMeF]TSDVSK[αMeF]LDSRAAQD[αMeF]VK([AEEA-AEEA-γGlu-γGlu-C18 diacid])SIANT-NH2; N-terminus assumed)
- % Relative Potency Ratio [1]: 2.0
- EC50 [1]: 0.159 nM
- EC50 [2]: 0.158 nM

Compound: CC[C@H](C)[C@H](NC(=O)[C@H](CO)NC(=O)[C@H](CCCCNC(=O)COCCOCCNC(=O)COCCOCCNC(=O)CC[C@H](NC(=O)CCCCCCCCCCCCCCCCC(=O)O)C(=O)O)NC(=O)[C@@H](NC(=O)[C@](C)(Cc1ccccc1)NC(=O)[C@H](CC(=O)O)NC(=O)[C@H](CCC(N)=O)NC(=O)[C@H](C)NC(=O)[C@H](C)NC(=O)[C@H](CCCNC(=N)N)NC(=O)[C@H](CO)NC(=O)[C@H](CC(=O)O)NC(=O)[C@H](CC(C)C)NC(=O)[C@](C)(Cc1ccccc1)NC(=O)[C@H](CCCCN)NC(=O)[C@H](CO)NC(=O)[C@@H](NC(=O)[C@H](CC(=O)O)NC(=O)[C@H](CO)NC(=O)[C@@H](NC(=O)[C@](C)(Cc1ccccc1)NC(=O)[C@H](CO)NC(=O)CNC(=O)[C@H](Cc1c[nH]cn1)NC(=O)C(C)(C)NC(=O)[C@@H](N)Cc1c[nH]cn1)[C@@H](C)O)C(C)C)C(C)C)C(=O)N[C@@H](C)C(=O)N[C@@H](CC(N)=O)C(=O)N[C@H](C(N)=O)[C@@H](C)O [Peptide 379] (H-H[Aib]HGS[αMeF]TSDVSK[αMeF]LDSRAAQD[αMeF]VK([AEEA-AEEA-γGlu-C18 diacid])SIANT-NH2)
- % Relative Potency Ratio [1]: 2.4
- EC50 [1]: 0.0718 nM
- EC50 [2]: 0.0857 nM

Compound: CC[C@H](C)[C@H](NC(=O)[C@H](CO)NC(=O)[C@H](CCCCNC(=O)COCCOCCNC(=O)COCCOCCNC(=O)CC[C@H](NC(=O)CC[C@H](NC(=O)CCCCCCCCCCCCCCCCC(=O)O)C(=O)O)C(=O)O)NC(=O)[C@@H](NC(=O)[C@H](Cc1ccccc1)NC(=O)[C@H](CC(=O)O)NC(=O)[C@H](CCC(N)=O)NC(=O)[C@H](C)NC(=O)[C@H](C)NC(=O)[C@H](CCCNC(=N)N)NC(=O)[C@H](CO)NC(=O)[C@H](CC(=O)O)NC(=O)[C@H](CC(C)C)NC(=O)[C@](C)(Cc1ccccc1)NC(=O)[C@H](CCCCN)NC(=O)[C@H](CO)NC(=O)[C@@H](NC(=O)[C@H](CC(=O)O)NC(=O)[C@H](CO)NC(=O)[C@@H](NC(=O)[C@](C)(Cc1ccccc1)NC(=O)[C@H](CO)NC(=O)CNC(=O)[C@H](Cc1c[nH]cn1)NC(=O)C(C)(C)NC(=O)[C@@H](N)Cc1c[nH]cn1)[C@@H](C)O)C(C)C)C(C)C)C(=O)N[C@@H](C)C(=O)N[C@@H](CC(N)=O)C(=O)N[C@H](C(=O)NCC(=O)NCC(N)=O)[C@@H](C)O [Peptide 381] (H-H[Aib]HGS[αMeF]TSDVSK[αMeF]LDSRAAQDFVK([AEEA-AEEA-γGlu-γGlu-C18 diacid])SIANTGG-NH2; N-terminus assumed)
- % Relative Potency Ratio [1]: 14.9
- EC50 [1]: 0.174 nM
- EC50 [2]: 1.31 nM

Compound: CC[C@H](C)[C@H](NC(=O)[C@H](CO)NC(=O)[C@H](CCCCNC(=O)COCCOCCNC(=O)COCCOCCNC(=O)CC[C@H](NC(=O)CC[C@H](NC(=O)CCCCCCCCCCCCCCCCC(=O)O)C(=O)O)C(=O)O)NC(=O)[C@@H](NC(=O)[C@H](Cc1ccccc1)NC(=O)[C@H](CC(=O)O)NC(=O)[C@H](CCC(N)=O)NC(=O)[C@H](C)NC(=O)C(C)(C)NC(=O)[C@H](CCCNC(=N)N)NC(=O)[C@H](CO)NC(=O)[C@H](CC(=O)O)NC(=O)[C@H](CC(C)C)NC(=O)[C@](C)(Cc1ccccc1)NC(=O)[C@H](CCCCN)NC(=O)[C@H](CO)NC(=O)[C@@H](NC(=O)[C@H](CC(=O)O)NC(=O)[C@H](CO)NC(=O)[C@@H](NC(=O)[C@](C)(Cc1ccccc1)NC(=O)[C@H](CO)NC(=O)CNC(=O)[C@H](Cc1c[nH]cn1)NC(=O)C(C)(C)NC(=O)[C@@H](N)Cc1c[nH]cn1)[C@@H](C)O)C(C)C)C(C)C)C(=O)N[C@@H](C)C(=O)N[C@@H](CC(N)=O)C(=O)N[C@H](C(=O)NCC(=O)NCC(N)=O)[C@@H](C)O [Peptide 382, H(Aib)HGS(αMePhe)TSDVSK(αMePhe)LDSR(Aib)AQDFVK(O2OC-O2OC-γE-γE-C18diacid)24SIANTGG-amide] (H-H[Aib]HGS[αMeF]TSDVSK[αMeF]LDSR[Aib]AQDFVK([AEEA-AEEA-γGlu-γGlu-C18 diacid])SIANTGG-NH2; N-terminus assumed)
- % Relative Potency Ratio [1]: 11.6
- EC50 [1]: 0.056 nM
- EC50 [2]: 0.329 nM
